# US20100016313A1, “INTESTINAL ALKALINE PHOSPHATASE MODULATORS AND USES THEREOF” (Burnham Institute for Medical Research, priority 2008, published 2010)
# Target: T1, human IAP (Homo sapiens, UniProt P09923)
# T1 construct: made in house; host or cells: COS-1 cells, transient expression from pCMV-Script; conditioned serum-free medium used as enzyme stock
# T1 sequence (P09923 20-503 limits assumed): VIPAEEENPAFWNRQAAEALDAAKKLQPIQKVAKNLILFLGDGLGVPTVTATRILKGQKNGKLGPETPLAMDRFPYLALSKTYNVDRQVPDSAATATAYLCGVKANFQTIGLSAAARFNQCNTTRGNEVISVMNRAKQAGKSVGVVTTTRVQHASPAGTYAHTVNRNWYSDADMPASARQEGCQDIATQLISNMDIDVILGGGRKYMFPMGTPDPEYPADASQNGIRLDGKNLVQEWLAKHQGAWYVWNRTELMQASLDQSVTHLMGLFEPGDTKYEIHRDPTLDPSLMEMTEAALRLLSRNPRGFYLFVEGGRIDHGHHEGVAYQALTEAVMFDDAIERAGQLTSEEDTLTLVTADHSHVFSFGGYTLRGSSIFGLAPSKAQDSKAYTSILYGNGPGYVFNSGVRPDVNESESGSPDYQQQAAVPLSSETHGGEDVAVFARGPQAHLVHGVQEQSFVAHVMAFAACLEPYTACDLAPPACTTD
# Assay: IAP assay using CDP-Star (chemiluminescent, dose response)
# Type: biochemical
# Details: IAP modulators, Tables A-H, positive = inhibitor; for n (Hill coefficient): negative = activator; for IC50: negative Hill coefficient = activator
# Source text: An expression vector pCMV-Script containing cDNA for human IAP, TNAP, PLAP, GCAP, mouse TNAP, dIAP, EAP or gIAP in secreted form (FLAG-tagged) is transfected into COS-1 cells for transient expression using a standard electroporation method. The GPI anchoring site is replaced by a FLAG sequence to make the proteins secreted into the media as well as to test their kinetics in a form immobilized by anti-FLAG antibody (Narisawa, et al, 2007). Medium is changed to serum free medium Opti-MEM (Invitrogen) 24 h later, and media containing secreted proteins was collected 66 hr after electroporation. Conditioned medium filtered by a 2 μm cellulose acetate membrane is supplemented with 0.1% BSA, aliquotted and stored at −80° C.
# Human IAP is produced on a large scale to be used in the primary high throughput screening. For a maximum of 200,000 wells including a blank and negative control in each plate, approximately 1600 ml of the recombinant human IAP working solution (8 μl/well×200,000) is used. The working solution is a 1:80 dilution of the stock solution that has AP activity showing ΔOD405 (velocity) ˜300 in 5 min pNPP calorimetric assay. Therefore a minimum of 20 ml of the stock solution (1600÷80) is needed. An enzyme stock is prepared from ten 15 cm φ plates of COS-1 cells using 100 μg plasmid DNA [ten plates×(10 μg DNA/1×10^7 cells per 15 cm φ plate)].
# Compound aliquots (4 μL at […] in 10% DMSO) are added to 8 μL of human IAP working solution of a the human IAP stock solution diluted 1:80 in assay buffer (250 mM DEA, pH 9.8, −2.5 mM MgCl2, −0.05 μM ZnCl2). The solution of substrate CDP-Star, disodium 2-chloro-5-(4-methoxyspiro{1,2-dioxetane-3,2′(5′-chloro)-tricyclo[3.3.1.1]3,7 decan}-4-yl)-1-phenyl phosphate (New England Biolabs), (8 μL of 125 μM in water) is added to each well. […] Dispensing of human IAP working solution and CDP-Star is processed using a WellMate bulk dispenser (Matrix). Plates (white 384-well small volume Greiner 784075) are incubated at room temperature for 30 min, and the luminescence signal is measured using a PerkinElmer EnVision multi-mode plate reader. L-Phenylalanine (1 mM final concentration) and 2% DMSO is utilized as an inhibition control and blank, respectively. Data analysis is processed using CBIS software (ChemInnovations, Inc).
# The compound is diluted ([…] to 0.03 mM) and incubated with the human IAP enzyme for 30 min prior to addition of substrate. At the same time, human TNAP, human PLAP, human GCAP, mouse TNAP, mouse dIAP, mouse EAP and mouse gIAP is tested to determine enzyme specificity.
SMILES,n (Hill coefficient),IC50 [µM]
"Cn1nc(-c2ccc(F)cc2)cc1C(=O)O [Compound D1, 3-(4-fluorophenyl)-1-methyl 1H-pyrazole-5 carboxylic acid]",–,> 100
"COc1ccc(-c2cc(C(=O)O)n[nH]2)cc1 [Compound A3, 5-(4-methoxyphenyl)-1H-pyrazole-3-carboxylic acid]",–,> 100
"COC(=O)c1cc(-c2ccc3ccccc3c2)[nH]n1 [Compound C1, methyl 3-(nahthylen-2-yl)-1H-pyrazole-5-carboxylate]",–,> 100
"CC(C)(C)C(=O)COC(=O)c1cc(-c2ccc(Br)cc2)[nH]n1 [Compound A12, 3,3-dimethyl-2-oxobutyl 5-(4-bromophenyl)-1H-pyrazole-3-carboxylate]",−1.09,42.8
"Nc1ccc(-c2cc(C(=O)O)n[nH]2)cc1 [Compound A5, 5-(4-aminophenyl)-1H-pyrazole-3-carboxylic acid]",–,> 100
"CCc1ccc(-c2cc(C(=O)O)[nH]n2)cc1 [Compound B6, 3-(4-ethylphenyl)-1H-pyrazole-5-carboxylic acid]",–,> 100
"Cn1nc(C(=O)O)cc1-c1ccc(F)cc1 [Compound D2, 5-(4-fluorophenyl)-1-methyl 1H-pyrazole-3 carboxylic acid]",–,> 100
"CCOC(=O)c1cc(-c2cccc(C(F)(F)F)c2)[nH]n1 [Compound A6, ethyl 5-[3-(trifluoromethyl)phenyl]-1H-pyrazole-3-carboxylate]",−1.45,45.4
"O=C(O)c1cc(-c2ccccc2O)n[nH]1 [Compound B2, 3-(2-hydroxyphenyl)-1H-pyrazole-5-carboxylic acid]",−1.92,7.85
"CC(C)c1ccc(-c2cc(C(=O)O)[nH]n2)cc1 [Compound B3, 3-(4-isopropylphenyl)-1H-pyrazole-5-carboxylic acid]",−4.38,98.3
"COC(=O)c1cc(-c2ccc(Br)cc2)n[nH]1 [Compound A7, methyl 5-(4-bromophenyl)-1H-pyrazole-3-carboxylate]",–,> 100
"CCCCOc1ccc(-c2cc(C(=O)OC)[nH]n2)cc1 [Compound B15, methyl 3-(4-butoxyphenyl)-1H-pyrazole-5-carboxylate]",–,> 100
"CN(C(=O)COC(=O)c1cc(-c2ccc(Br)cc2)[nH]n1)C1CCCCC1 [Compound A11, 2-[cyclohexyl(methyl)amino]-2-oxoethyl 5-(4-bromophenyl)-1H-pyrazole-3-carboxylate]",–,> 100
"O=C(O)c1cc(-c2ccc(Cl)cc2)n[nH]1 [Compound A2, 5-(4-chlorophenyl)-1H-pyrazole-3-carboxylic acid]",–,> 100
"COC(=O)c1cc(-c2ccc(OC)cc2)[nH]n1 [Compound B14, methyl 3-(4-methoxyphenyl)-1H-pyrazole-5-carboxylate]",–,> 100
"CCOC(=O)c1cc(-c2ccc(Cl)cc2)n[nH]1 [Compound B17, ethyl 3-(4-chlorophenyl)-1H-pyrazole-5-carboxylate]",–,> 100
"Cc1c(-c2ccccc2)n[nH]c1C(=O)O [Compound D3, 4-methyl-5-phenyl-1H-pyrazole-3-carboxylic acid]",–,> 100
"COC(=O)c1cc(-c2ccc(C)cc2C)n[nH]1 [Compound B13, methyl 3-(2,4-dimethylphenyl)-1H-pyrazole-5-carboxylate]",−3.035,66.1
"Cc1ccc(-c2cc(C(=O)O)[nH]n2)c(C)c1 [Compound B7, 3-(2,4-dimethylphenyl)-1H-pyrazole-5-carboxylic acid]",–,> 100
"COc1cccc(-c2cc(C(=O)O)[nH]n2)c1 [Compound B5, 3-(3-methoxyphenyl)-1H-pyrazole-5-carboxylic acid]",–,> 100

# Further lines, results first:
n (Hill coefficient),IC50 [µM],SMILES
−2.03,13.8,"O=C1C2CCCCC2C(=O)N1c1ncn[nH]1 (stereo not drawn) [Compound F1, 2-(1H-1,2,4-triazol-5-yl)-hexahydro-1H-isoindole-1,3(2H)-dione]"
–,> 100,"Cc1ccc(Cl)c(N2C(=O)C(Cl)C(N3CCN(C)CC3)C2=O)c1Cl (stereo not drawn) [Compound H5, 3-chloro-1-(2,6-dichloro-3-methylphenyl)-4-(4-methylpiperazin-1-yl)pyrrolidine-2,5-dione]"
0.927,1.77,"O=C1C2CC=CCC2C(=O)N1c1nc(-c2cccnc2)n[nH]1 (stereo not drawn) [Compound F7, 2-[3-(pyridin-3-yl)-1H-1,2,4-triazol-5-yl)-3a,4,7,7a-tetrahydro-1H-isoindole-1,3(2H)-dione]"
−5,62.7,"Cc1cc(O)oc2nnc(-c3ccccc3)c1-2 [Compound E6, 4-methyl-3-phenylpyrano[2,3-c]pyrazol-6-ol]"
0.8895,0.0625,"O=C1C2CC=CCC2C(=O)N1c1nc(-c2ccccc2)n[nH]1 (stereo not drawn) [Compound F5, 2-(3-phenyl-1H-1,2,4-triazol-5-yl)-3a,4,7,7a-tetrahydro-1H-isoindole-1,3(2H)-dione]"
0.694,1.75,"O=C1C2CCCCC2C(=O)N1c1nc(CCc2ccccc2)n[nH]1 (stereo not drawn) [Compound F3, 2-(3-phenethyl-1H-1,2,4-triazol-5-yl)-hexahydro-1H-isoindole-1,3(2H)-dione]"
0.894,0.411,"O=C1C2CC=CCC2C(=O)N1c1nc(-c2ccco2)n[nH]1 (stereo not drawn) [Compound F6, 2-[3-(furan-2-yl)-1H-1,2,4-triazol-5-yl]-3a,4,7,7a-tetrahydro-1H-isoindole-1,3(2H)-dione]"
−1.89,21.1,"COc1ccc(-c2nnc3oc(O)cc(C)c2-3)cc1 [Compound E5, 3-(4-methoxyphenyl)-4-methylpyrano[2,3-c]prazol-6-ol]"
0.716,–,"COc1ccc(Br)cc1S(=O)(=O)Nc1cnc2ccccc2c1 [Compound G1, 5-bromo-2-methoxy-N-(quinolin-3-yl)benzenesulfonamide]"
–,> 100,"O=C(CSc1nnc[nH]1)NCCOc1ccccc1 [Compound H1, 2-(4H-1,2,4-triazol-3-ylthio)-N-(2-phenoxyethyl)acetamide]"
−1.32,30.5,"Cn1ccnc1Cc1ncnc(Nc2ccccc2)n1 [Compound H3, 4-[(1-methyl-4H-imidazol-2-yl)methyl]-N-phenyl-1,3,5-triazin-2-amine]"
–,> 100,"O=C(c1[nH]nc2c1COc1ccccc1-2)N1CCCC1 [Compound E2, (2,4-dihydrochromeno[3,4-c]pyrazol-3-yl)(pyrrolidin-1-yl)methanone]"
0.533,13.9,"O=C(O)c1[nH]nc2c1COc1ccccc1-2 [Compound E1, 2,4-dihydrochromeno[3,4-c]pyrazole-3-carboxylic acid]"
–,> 100,"COc1cc(C)c(Cl)cc1S(=O)(=O)Nc1cccnc1 [Compound G4, 2-methoxy-4-methyl-5-chloro-N-(pyridin-3-yl)benzenesulfonamide]"
1.28,0.503,"O=C1C2CC=CCC2C(=O)N1c1nc(Cc2ccccc2)n[nH]1 (stereo not drawn) [Compound F8, 2-(3-benzyl-1H-1,2,4-triazol-5-yl)-3a,4,7,7a-tetrahydro-1H-isoindole-1,3(2H)-dione]"
0.5445,–,"O=C1c2ccccc2C(=O)N1c1nc(Cc2ccccc2)n[nH]1 [Compound F11, 2-(3-benzyl-1H-1,2,4-triazol-5-yl)isoindoline-1,3-dione]"
